ChEMBL document CHEMBL3244018, “Synthesis and some pharmacological properties (4-beta-(2-thienyl)-L-alanine)oxytocin” (J Med Chem, 1978)
The source made the active and inactive calls. The calls are words filed in the database; no cut-off is given here. Positions of bridges follow the written chain, without caps; N, C: chain ends. Non-standard residues stand in square brackets, D forms with d. Residues, ends and D or L forms follow the SMILES beside them. 2Thi = N[C@@H](Cc1cccs1)C(=O)O

Key:
[1] = Inhibition of oxytocin receptor in conscious chicken assessed as inhibition of oxytocin-induced vasodepressor response; design: species or system Gallus gallus
[2] = species on record: Rattus norvegicus; experiment: Antidiuretic activity in rat at 0.1 mg; format: functional, Urine
[3] = species on record: Rattus norvegicus; experiment: Effect on pressor response in rat at 0.1 mg; format: functional
[4] = biological target: T1, Oxytocin receptor (Rattus norvegicus) (UniProt P70536); experiment: Binding affinity to rat oxytocin receptor
T1 sequence (whole entry): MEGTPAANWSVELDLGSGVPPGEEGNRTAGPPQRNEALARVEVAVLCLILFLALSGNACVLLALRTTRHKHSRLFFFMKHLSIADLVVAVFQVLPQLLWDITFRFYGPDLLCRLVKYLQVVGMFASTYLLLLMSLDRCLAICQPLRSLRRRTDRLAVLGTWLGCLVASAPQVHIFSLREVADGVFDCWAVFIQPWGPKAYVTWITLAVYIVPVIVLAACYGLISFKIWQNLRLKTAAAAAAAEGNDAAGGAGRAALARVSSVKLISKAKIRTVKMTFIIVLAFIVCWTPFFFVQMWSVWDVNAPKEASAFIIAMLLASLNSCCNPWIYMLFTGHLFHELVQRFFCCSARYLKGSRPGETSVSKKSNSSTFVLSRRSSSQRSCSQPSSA

[5] = biological target: T1, Oxytocin receptor (Rattus norvegicus); experiment: Intrinsic activity at rat oxytocin receptor relative to oxytocin
[6] = species on record: Rattus norvegicus; experiment: Uterotonic potency in rat; format: functional

pA2 [1]: 7.44
Activity [4]: inactive
Intrinsic activity [5]: 64%
Compound: CC[C@H](C)[C@@H]1NC(=O)[C@H](Cc2ccc(O)cc2)NC(=O)[C@@H](N)CSSC[C@@H](C(=O)N2CCC[C@H]2C(=O)N[C@@H](CC(C)C)C(=O)NCC(N)=O)NC(=O)[C@H](CC(N)=O)NC(=O)[C@H](Cc2cccs2)NC1=O (H-CYI[2Thi]NCPLG-NH2; disulfide 1-6)
Activity [2]: <0.05 U/mg
Activity [3]: <0.05 U/mg
Activity [6]: 0.51 U/mg
